From the supplement of paper PMC11208160

assay: recombinant UMI read abundance after kanamycin selection (control-corrected) (log10(CPM+1)); higher = more efficient recombination; extreme values may be limits of the assay; sequences stand for … in AGTGCAGAGAAAATCGGCCAGTTTTCTCTGCCTGCAGTCCGCATGCCGTGGGACCCCTTGGGTTCTAACCTGTTGCCTAGATTTATGCAGCGGACTGCCTTTCTCCCAAAGTGATAAACCGG…AGGTTGGTTTCACT; site = the 11-nt donor
Method in brief: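 Sequencing read counts were converted to CPM, averaged over two replicates and scaled by control-derived factors. Results are given as log10(CPM+1). The reads covered the donor–target junction of recombinant UMIs from a pooled Escherichia coli screen of donor and donor-binding-loop pairs for the IS621 bridge recombinase.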
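Also: IS621 bridge recombinase in Escherichia coli cells against a fixed T5 target plasmid.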

Point of comparison: “TAGGAATCATGGACCGGTTTTCCCGGTAATCCGTATTTGCC (site TAGGAATCTCG)”, “recombinant UMI read abundance (log10)” value 0.458. Against it:
- TAGGAACCATGGACCGGTTTTCCCGGTAATCCGTATTTGCG (site TAGGAAGCTCG) — lower, 0.00966
- TAGGAACCATGGACCGGTTTTCCCGGTAATCCGTATTTGCG (site TAGGAATCTCG) — higher, 0.681
- TAGGAAGCATGGACCGGTTTTCCCGGTAATCCGTATTTGCG (site TAGGAAACTCG) — higher, 2.32
- TAGGAAGCATGGACCGGTTTTCCCGGTAATCCGTATTTGCG (site TAGGAACCTCG) — lower, 0.00974
- TAGGAAGCATGGACCGGTTTTCCCGGTAATCCGTATTTGCG (site TAGGAAGCTCG) — higher, 2.73
- TAGGAAGCATGGACCGGTTTTCCCGGTAATCCGTATTTGCG (site TAGGAATCTCG) — higher, 1.85
- TAGGAATCATGGACCGGTTTTCCCGGTAATCCGTATTTGCC (site TAGGAATCTAG) — higher, 1.1
- TAGGAATCATGGACCGGTTTTCCCGGTAATCCGTATTTGCC (site TAGGAATCTGG) — higher, 2.68
- TAGGAATCATGGACCGGTTTTCCCGGTAATCCGTATTTGCC (site TAGGAATCTTG) — higher, 1.74
- TAGGACTCATGGACCGGTTTTCCCGGTAATCCGTATTTGCG (site TAGGAATCTCG) — higher, 1.98
- TAGGACTCATGGACCGGTTTTCCCGGTAATCCGTATTTGCG (site TAGGACTCTCG) — higher, 2.75
- TAGGACTCATGGACCGGTTTTCCCGGTAATCCGTATTTGCG (site TAGGAGTCTCG) — higher, 1.05
- TAGGACTCATGGACCGGTTTTCCCGGTAATCCGTATTTGCG (site TAGGATTCTCG) — higher, 1.05
- TAGGTACCATGGACCGGTTTTCCCGGTAATCCGTATTTGTT (site TAGGTACCTAA) — lower, 0.0119
- TAGGTTTCATGGACCGGTTTTCCCGGTAATCCGTATTTGCG (site TAGGTTTCTCG) — higher, 1.99
- TAGTAATCATGGACCGGTTTTCCCGGTAATCCGTATTTGCG (site TAGAAATCTCG) — higher, 1.56
- TAGTAATCATGGACCGGTTTTCCCGGTAATCCGTATTTGCG (site TAGCAATCTCG) — higher, 2.29
- TAGTAATCATGGACCGGTTTTCCCGGTAATCCGTATTTGCG (site TAGGAATCTCG) — higher, 1.47
- TAGTAATCATGGACCGGTTTTCCCGGTAATCCGTATTTGCG (site TAGTAATCTCG) — higher, 2.65
- TAGTACTCATGGACCGGTTTTCCCGGTAATCCGTATTTGAT (site TAGTACTCTAT) — higher, 2.53
- TAGTATACATGGACCGGTTTTCCCGGTAATCCGTATTTGTG (site TAGTATACTCA) — higher, 0.807
- TAGTCAACATGGACCGGTTTTCCCGGTAATCCGTATTTGTT (site TAGTCAACTAA) — lower, 0.0293
- TAGTCAGCATGGACCGGTTTTCCCGGTAATCCGTATTTGCT (site TAGTCAGCTAG) — higher, 0.957
- TAGTCTGCATGGACCGGTTTTCCCGGTAATCCGTATTTGAG (site TAGTCTGCTCT) — within 0.2 log units, 0.338
- TAGTGAGCATGGACCGGTTTTCCCGGTAATCCGTATTTGGG (site TAATGAGCTCC) — lower, 0.00708
- TAGTGAGCATGGACCGGTTTTCCCGGTAATCCGTATTTGGG (site TACTGAGCTCC) — lower, 0
- TAGTGAGCATGGACCGGTTTTCCCGGTAATCCGTATTTGGG (site TAGTGAGCTCC) — lower, 0.0293
- TAGTGAGCATGGACCGGTTTTCCCGGTAATCCGTATTTGGG (site TATTGAGCTCC) — lower, 0
- TAGTGGACATGGACCGGTTTTCCCGGTAATCCGTATTTGTT (site TAGTGGACTAA) — higher, 1.38
- TAGTGTACATGGACCGGTTTTCCCGGTAATCCGTATTTGAT (site TAGTGTACTAT) — higher, 0.856
- TATAAAGCATGGACCGGTTTTCCCGGTAATCCGTATTTGGA (site TATAAAGCTTC) — within 0.2 log units, 0.646
- TATAATACATGGACCGGTTTTCCCGGTAATCCGTATTTGCA (site TAAAATACTTG) — higher, 1.04
- TATAATACATGGACCGGTTTTCCCGGTAATCCGTATTTGCA (site TACAATACTTG) — within 0.2 log units, 0.35
- TATAATACATGGACCGGTTTTCCCGGTAATCCGTATTTGCA (site TAGAATACTTG) — higher, 2.6
- TATAATACATGGACCGGTTTTCCCGGTAATCCGTATTTGCA (site TATAATACTTG) — lower, 0.242
- TATACTGCATGGACCGGTTTTCCCGGTAATCCGTATTTGCT (site TATACTGCTAG) — higher, 1.63
- TATAGCGCATGGACCGGTTTTCCCGGTAATCCGTATTTGTC (site TATAGCGCTGA) — higher, 2.62
- TATAGTCCATGGACCGGTTTTCCCGGTAATCCGTATTTGTA (site TAAAGTCCTTA) — within 0.2 log units, 0.605
- TATAGTCCATGGACCGGTTTTCCCGGTAATCCGTATTTGTA (site TACAGTCCTTA) — lower, 0.121
- TATAGTCCATGGACCGGTTTTCCCGGTAATCCGTATTTGTA (site TAGAGTCCTTA) — lower, 0.0216
- TATAGTCCATGGACCGGTTTTCCCGGTAATCCGTATTTGTA (site TATAGTCCTTA) — within 0.2 log units, 0.432
- TATCAAACATGGACCGGTTTTCCCGGTAATCCGTATTTGGC (site TATCAAACTGC) — lower, 0
- TATCACACATGGACCGGTTTTCCCGGTAATCCGTATTTGTC (site TATCACACTGA) — higher, 1.5
- TATCAGCCATGGACCGGTTTTCCCGGTAATCCGTATTTGTT (site TATCAGCCTAA) — lower, 0.0212
- TATCCATCATGGACCGGTTTTCCCGGTAATCCGTATTTGCG (site TATCCATCTCG) — within 0.2 log units, 0.52
- TATCGAGCATGGACCGGTTTTCCCGGTAATCCGTATTTGTC (site TATCGAGCTGA) — higher, 2.55
- TATCGTCCATGGACCGGTTTTCCCGGTAATCCGTATTTGCG (site TATCGTCCTCG) — lower, 0.0127
- TATCTCACATGGACCGGTTTTCCCGGTAATCCGTATTTGTC (site TATCTCACTGA) — higher, 1.44
- TATCTTCCATGGACCGGTTTTCCCGGTAATCCGTATTTGGT (site TATCTTCCTAC) — lower, 0.00632
- TATGCGACATGGACCGGTTTTCCCGGTAATCCGTATTTGCT (site TATGCGACTAG) — higher, 1.27
- TATGCTGCATGGACCGGTTTTCCCGGTAATCCGTATTTGGA (site TATGCTGCTTC) — lower, 0.0199
- TATGGACCATGGACCGGTTTTCCCGGTAATCCGTATTTGCA (site TATGGACCTTG) — lower, 0
- TATGGGTCATGGACCGGTTTTCCCGGTAATCCGTATTTGCT (site TATGGGTCTAG) — higher, 2.88
- TATGTAACATGGACCGGTTTTCCCGGTAATCCGTATTTGCT (site AATGTAACTAG) — higher, 0.864
- TATGTAACATGGACCGGTTTTCCCGGTAATCCGTATTTGCT (site CATGTAACTAG) — higher, 1.18
- TATGTAACATGGACCGGTTTTCCCGGTAATCCGTATTTGCT (site GATGTAACTAG) — higher, 1.67
- TATGTAACATGGACCGGTTTTCCCGGTAATCCGTATTTGCT (site TATGTAACTAG) — higher, 2.06
- TATGTATCATGGACCGGTTTTCCCGGTAATCCGTATTTGCC (site TATGTATCTGG) — higher, 2.66
- TATGTGGCATGGACCGGTTTTCCCGGTAATCCGTATTTGAA (site TATGTGGCTTT) — higher, 0.784
- TATGTGGCATGGACCGGTTTTCCCGGTAATCCGTATTTGTG (site TATATGGCTCA) — lower, 0.00536
- TATGTGGCATGGACCGGTTTTCCCGGTAATCCGTATTTGTG (site TATCTGGCTCA) — lower, 0.0111
- TATGTGGCATGGACCGGTTTTCCCGGTAATCCGTATTTGTG (site TATGTGGCTCA) — lower, 0.00847
- TATGTGGCATGGACCGGTTTTCCCGGTAATCCGTATTTGTG (site TATTTGGCTCA) — lower, 0.0197
- TATTAACCATGGACCGGTTTTCCCGGTAATCCGTATTTGCC (site TATTAACCTGG) — lower, 0
- TATTCAACATGGACCGGTTTTCCCGGTAATCCGTATTTGCC (site TATTCAACTGG) — within 0.2 log units, 0.527
- TATTCGGCATGGACCGGTTTTCCCGGTAATCCGTATTTGGT (site TATTCGGCTAC) — lower, 0
- TATTCTGCATGGACCGGTTTTCCCGGTAATCCGTATTTGGA (site TATTCTGCTTC) — within 0.2 log units, 0.603
- TATTTAGCATGGACCGGTTTTCCCGGTAATCCGTATTTGTG (site TATTTAGCTCA) — within 0.2 log units, 0.31
- TATTTAGCATGGACCGGTTTTCCCGGTAATCCGTATTTGTG (site TATTTCGCTCA) — lower, 0.026
- TATTTAGCATGGACCGGTTTTCCCGGTAATCCGTATTTGTG (site TATTTGGCTCA) — lower, 0.0112
- TATTTAGCATGGACCGGTTTTCCCGGTAATCCGTATTTGTG (site TATTTTGCTCA) — lower, 0.0238
- TATTTGGCATGGACCGGTTTTCCCGGTAATCCGTATTTGGG (site TATTTGGCTCA) — lower, 0
- TATTTGGCATGGACCGGTTTTCCCGGTAATCCGTATTTGGG (site TATTTGGCTCC) — lower, 0.0427
- TATTTGGCATGGACCGGTTTTCCCGGTAATCCGTATTTGGG (site TATTTGGCTCG) — lower, 0.0185
